# Measurements as given in patent publication US20220395539A1, “TRADITIONAL CHINESE MEDICINE COMPOSITION FOR TREATING PSORIASIS, PREPARATION METHOD THEREFOR AND USE THEREOF” (priority 2019, published 2022).
# Tested on: mice psoriasis-like skin lesion model induced by imiquimod
# Experiment: mice psoriasis-like skin lesion model induced by imiquimod
# Type: in vivo, C57BL/6 mice
# Parameters: Pathological score Epidermal cell keratinization / Pathological score Dermal thickness / Pathological score Total score: scale not given here
# Conditions: methotrexate 1 mg/kg
# Protocol: II. Pharmacodynamic Experiment of the Medicine Composition of the Present Application on Mice Psoriasis-Like Skin Lesion Model Induced by Imiquimod. Researching subjects: […] (2015000562136). The mice were fed with standard diet and the animal room was kept at the temperature of 23±2° C. and the humidity of 40% to 70%. […] The medium-dosage group of 9-ingredient macules-eliminating prescription: clinical equivalent dose. The low-dosage group of 9-ingredient macules-eliminating prescription: the dosage in the low-dosage group was ¼ of that in the high-dosage group. [table] Modeling method and treatment: […] Clinical symptoms: observe any clinical symptoms of each animal at the beginning and during the experiment. Any abnormal response should be recorded. […] PASI method: photos of the skin lesions were taken every day, and the erythema, scales and infiltration thickening degree at the skin lesions were scored, and the three scores were added up to obtain the total scores. […] End of experiment: after the experiment, the animals were sacrificed by CO2 deep anesthesia, and the corresponding tissues were collected. Statistics of data: the experimental data are expressed by Mean±SD, and the data between two groups are tested by T test, P<0.05 is considered as significant difference.
# [1] = Yujinyinxie tablet 0.72 g/kg, i.g. Qd
# [2] = Yujinyinxie tablet 0.72 g/kg, i.g. Qd 7 days
smiles,measurement,setting,value
"CN(Cc1cnc2nc(N)nc(N)c2n1)c1ccc(C(=O)N[C@@H](CCC(=O)O)C(=O)O)cc1 [Methotrexate, methotrexate]",effect on the weight compared with the model group,"gavage 7 days, 9-ingredient 11.24, 5.62 and 2.81 g extract/kg",reduced the weight
same,BW Day l,[1],20.29 ± 0.68 g
same,"Severity index Day 4 (total score of skin lesion, PASI method)",[1],1.65 ± 0.58
same,"Severity index Day 5 (total score of skin lesion, PASI method)",[1],2.20 ± 0.48
same,"Severity index Day 6 (total score of skin lesion, PASI method)",[1],1.90 ± 0.39
same,"Severity index Day 7 (total score of skin lesion, PASI method)",[1],3.60 ± 0.63
same,BW Day 8,[2],17.99 ± 2.71 g
same,Pathological score Dermal inflammatory cells infiltration degree,[2],"1.10 ± 0.32,"
same,Pathological score Dermal thickness,[2],1.50 ± 0.53
same,Pathological score Epidermal cell keratinization,[2],1.60 ± 0.84
same,Pathological score Epidermal thickness,[2],"1.60 ± 0.52,"
same,Pathological score Total score,[2],5.80 ± 1.14
same,"Severity index Day 8 (total score of skin lesion, PASI method)",[2],3.05 ± 1.82
